Tested on: Plasmodium berghei
Assay: Luciferase/luciferin-expressing antifolate-resistant parasites were used to infect a culture of HepG2 cells that were pre-incubated with compounds. Infected hepatocytes emit light due to the luciferase reaction. Assay results are presented as the percent inhibition of light emission compared to control. […]
Assay type: functional
Conditions: sporozoite; for IC90: read-out: LUCIFERASE INFECTION ASSAY - IC90

Compound | IC90 | further results
CN(C(=O)COC(=O)c1nc(Cl)c(Cl)c(Cl)c1Cl)C1CCS(=O)(=O)C1 (configuration not stated) | > 10 µM | IC50 (HEPG2TOX_HILL_SLOPE 15.2, HEPG2TOX_R_SQUARED 0.451, read-out: LUCIFERASE INFECTION ASSAY - IC50): > 10 µM
CC1CCCCC1NC(=O)/C(C#N)=C/C=C/c1ccccc1[N+](=O)[O-] (configuration not stated) | > 10 µM | IC50 (HEPG2TOX_HILL_SLOPE 14.8, 8.85, HEPG2TOX_R_SQUARED 0.251, 0.979, PBLUC_HILL_SLOPE 2.96, PBLUC_R_SQUARED 0.503, read-out: LUCIFERASE INFECTION ASSAY - IC50): 8.55 µM
COc1ccc(CC(N)c2csc(NC(=O)C(c3ccccc3)c3ccccc3)n2)cc1 (configuration not stated) | 5.8 µM | IC50 (HEPG2TOX_HILL_SLOPE 15.4, HEPG2TOX_R_SQUARED 0.86, PBLUC_HILL_SLOPE 4.59, PBLUC_R_SQUARED 0.756, read-out: LUCIFERASE INFECTION ASSAY - IC50): 3.59 µM
N#Cc1ccc(OC(=O)c2c(Cl)cccc2Cl)cc1 | > 11.3 µM | IC50 (HEPG2TOX_HILL_SLOPE 15.2, HEPG2TOX_R_SQUARED 0.237, read-out: LUCIFERASE INFECTION ASSAY - IC50): > 11.3 µM
O=c1c(Cl)c(Cl)cnn1-c1ccc(S(=O)(=O)NCCCOCC2CC2)cc1 | 4.65 µM | IC50 (HEPG2TOX_HILL_SLOPE 15.7, HEPG2TOX_R_SQUARED 0.58, PBLUC_HILL_SLOPE 8.81, PBLUC_R_SQUARED 0.0863, read-out: LUCIFERASE INFECTION ASSAY - IC50): 3.62 µM
CNC(=O)c1cccc(NC(=O)c2ccc3[nH]c4c(c3c2)CCCC4)c1 | > 10 µM | IC50 (HEPG2TOX_HILL_SLOPE 15.2, HEPG2TOX_R_SQUARED 0.62, read-out: LUCIFERASE INFECTION ASSAY - IC50): > 10 µM
Cc1nn(-c2ccccc2)c(C)c1C(=O)ONC(=N)c1ccc(C(C)(C)C)cc1 | 3.03 µM | IC50 (HEPG2TOX_HILL_SLOPE 14.9, HEPG2TOX_R_SQUARED 0.924, PBLUC_HILL_SLOPE 26.9, PBLUC_R_SQUARED 0.601, read-out: LUCIFERASE INFECTION ASSAY - IC50): 2.79 µM
Cc1csc(NC(=O)Nc2cc(C(F)(F)F)cc(C(F)(F)F)c2)c1 | 3.4 µM | IC50 (HEPG2TOX_HILL_SLOPE 15.4, HEPG2TOX_R_SQUARED 0.694, PBLUC_HILL_SLOPE 2.82, PBLUC_R_SQUARED 0.474, read-out: LUCIFERASE INFECTION ASSAY - IC50): 1.56 µM
COc1ccc2cc(CN(C)C(C)C(=O)NCc3ccc(F)cc3)ccc2c1 (configuration not stated) | > 10 µM | IC50 (HEPG2TOX_HILL_SLOPE 14.9, HEPG2TOX_R_SQUARED 0.671, read-out: LUCIFERASE INFECTION ASSAY - IC50): > 10 µM
CCOC(=O)c1cc(C#N)c(Sc2n[nH]c(=O)n2C(C)C)nc1C(F)(F)F | > 8.22 µM | IC50 (HEPG2TOX_HILL_SLOPE 15.1, HEPG2TOX_R_SQUARED 0.842, PBLUC_HILL_SLOPE 4.42, PBLUC_R_SQUARED 0.232, read-out: LUCIFERASE INFECTION ASSAY - IC50): 5.41 µM
CC(C)N1C(=O)N(CCc2ccccc2)C2(CCN(Cc3ccccc3)CC2)C1=O | > 8.14 µM | IC50 (HEPG2TOX_HILL_SLOPE 15.6, HEPG2TOX_R_SQUARED 0.916, PBLUC_HILL_SLOPE 3.95, PBLUC_R_SQUARED 0.588, read-out: LUCIFERASE INFECTION ASSAY - IC50): 4.99 µM
C=CCc1ccccc1OCC(O)CNC(C)(C)CC(C)(C)C (configuration not stated) | 4.91 µM | IC50 (HEPG2TOX_HILL_SLOPE 15.1, HEPG2TOX_R_SQUARED 0.905, PBLUC_HILL_SLOPE 217, PBLUC_R_SQUARED 0.361, read-out: LUCIFERASE INFECTION ASSAY - IC50): 4.86 µM
Cc1ccc(O)c(C(=O)NCCc2ccc3c(c2)OCCO3)c1 | 7.45 µM | IC50 (HEPG2TOX_HILL_SLOPE 15.5, HEPG2TOX_R_SQUARED 0.566, PBLUC_HILL_SLOPE 1.92, PBLUC_R_SQUARED 0.779, read-out: LUCIFERASE INFECTION ASSAY - IC50): 2.37 µM
CCOc1ccc2ccccc2c1/C=C/c1ccc2cccc(O)c2n1 | 3.84 µM | IC50 (HEPG2TOX_HILL_SLOPE 14.8, HEPG2TOX_R_SQUARED 0.407, PBLUC_HILL_SLOPE 11.5, PBLUC_R_SQUARED 0.372, read-out: LUCIFERASE INFECTION ASSAY - IC50): 3.17 µM
CCn1c(C)nc2cc(C(=O)N/N=C/c3sc(N4CCCCC4)nc3-c3cccs3)ccc21 | 4.03 µM | IC50 (HEPG2TOX_HILL_SLOPE 15, HEPG2TOX_R_SQUARED 0.462, PBLUC_HILL_SLOPE 10.3, PBLUC_R_SQUARED 0.738, read-out: LUCIFERASE INFECTION ASSAY - IC50): 3.26 µM
COc1cc(-c2nc3ccc(NC(=O)Nc4cccc(C(F)(F)F)c4)cn3n2)cc(OC)c1OC | 8.43 µM | IC50 (HEPG2TOX_HILL_SLOPE 15.4, HEPG2TOX_R_SQUARED 0.156, PBLUC_HILL_SLOPE 4.31, PBLUC_R_SQUARED 0.169, read-out: LUCIFERASE INFECTION ASSAY - IC50): 5.06 µM

Compound | IC90 | further results
CCOc1cc(CNCc2nc3ccccc3[nH]2)ccc1OCc1cccs1 | > 10 µM | IC50 (HEPG2TOX_HILL_SLOPE 15, HEPG2TOX_R_SQUARED 0.655, PBLUC_HILL_SLOPE 1.7, PBLUC_R_SQUARED 0.452, read-out: LUCIFERASE INFECTION ASSAY - IC50): 4.17 µM
COc1cc2c(cc1OC)CN(C(=O)CCN1c3ccccc3Sc3ccccc31)CC2 | 8.48 µM | IC50 (HEPG2TOX_HILL_SLOPE 15.5, HEPG2TOX_R_SQUARED 0.469, PBLUC_HILL_SLOPE 3.54, PBLUC_R_SQUARED 0.432, read-out: LUCIFERASE INFECTION ASSAY - IC50): 4.56 µM
COc1ccc(OC)c(C(=O)/C=C/c2cc(Br)cs2)c1 | 5.17 µM | IC50 (HEPG2TOX_HILL_SLOPE 14.7, HEPG2TOX_R_SQUARED 0.849, PBLUC_HILL_SLOPE 92.6, PBLUC_R_SQUARED 0.363, read-out: LUCIFERASE INFECTION ASSAY - IC50): 5.05 µM
N#CC1(c2ccccc2)C/C(=C\c2cccnc2)C(=O)/C(=C/c2cccnc2)C1 (configuration not stated) | 4.83 µM | IC50 (HEPG2TOX_HILL_SLOPE 15.6, HEPG2TOX_R_SQUARED 0.458, PBLUC_HILL_SLOPE 155, PBLUC_R_SQUARED 0.194, read-out: LUCIFERASE INFECTION ASSAY - IC50): 4.76 µM
C=C(c1ccccc1)[n+]1ccc(C(=O)c2ccccc2)cc1 | > 9.01 µM | IC50 (HEPG2TOX_HILL_SLOPE 15.5, HEPG2TOX_R_SQUARED 0.47, PBLUC_HILL_SLOPE 4.11, PBLUC_R_SQUARED 0.394, read-out: LUCIFERASE INFECTION ASSAY - IC50): 5.35 µM
Cc1nc(NC(=O)CSc2nnc(-c3c[nH]c4ccccc34)n2C2CC2)c(Cl)cc1Cl | > 10 µM | IC50 (HEPG2TOX_HILL_SLOPE 15.3, 2.10, HEPG2TOX_R_SQUARED 0.288, 0.992, PBLUC_HILL_SLOPE 2.43, PBLUC_R_SQUARED 0.583, read-out: LUCIFERASE INFECTION ASSAY - IC50): 4.48 µM
CCOc1ccc(-c2cc(-c3ccc(S(C)(=O)=O)cc3)nc3c2cnn3C(C)C)cc1 | > 10 µM | IC50 (HEPG2TOX_HILL_SLOPE 15.4, HEPG2TOX_R_SQUARED 0.615, PBLUC_HILL_SLOPE 23, PBLUC_R_SQUARED 0.199, read-out: LUCIFERASE INFECTION ASSAY - IC50): 9.21 µM
COc1ccc(C(C)=O)cc1COc1cccc(C(=O)NCc2ccccc2)c1 | 9.35 µM | IC50 (HEPG2TOX_HILL_SLOPE 15.6, HEPG2TOX_R_SQUARED 0.727, PBLUC_HILL_SLOPE 15.6, PBLUC_R_SQUARED 0.0647, read-out: LUCIFERASE INFECTION ASSAY - IC50): 8.12 µM
CC(C)n1ncc2c(C(=O)Nc3ccc(N4CCN(C)CC4)nc3)cc(-c3cccs3)nc21 | 8.59 µM | IC50 (HEPG2TOX_HILL_SLOPE 15.5, HEPG2TOX_R_SQUARED 0.177, PBLUC_HILL_SLOPE 20.4, 20.5, PBLUC_R_SQUARED 0.223, 0.421, read-out: LUCIFERASE INFECTION ASSAY - IC50): 7.71 µM
CC(C)(C)c1csc(NC(=O)c2ccc(Br)cc2)n1 | 8.74 µM | IC50 (HEPG2TOX_HILL_SLOPE 15.1, HEPG2TOX_R_SQUARED 0.819, PBLUC_HILL_SLOPE 4.4, PBLUC_R_SQUARED 0.25, read-out: LUCIFERASE INFECTION ASSAY - IC50): 5.3 µM
FC1(F)Oc2ccc(Nc3cc(-c4cc(Cl)cc(Cl)c4)ncn3)cc2OC1(F)F | > 7.4 µM | IC50 (HEPG2TOX_HILL_SLOPE 15.2, HEPG2TOX_R_SQUARED 0.834, PBLUC_HILL_SLOPE 14.8, PBLUC_R_SQUARED 0.0861, read-out: LUCIFERASE INFECTION ASSAY - IC50): 6.88 µM
CCc1cccc2c(C3=NNC(=Nc4ccc(S(=O)(=O)N5CCOCC5)cc4)SC3)c[nH]c12 | > 10 µM | IC50 (HEPG2TOX_HILL_SLOPE 14.9, HEPG2TOX_R_SQUARED 0.843, PBLUC_HILL_SLOPE 3.05, PBLUC_R_SQUARED 0.104, read-out: LUCIFERASE INFECTION ASSAY - IC50): 5.65 µM
NC(CCc1ccccc1)c1csc(Nc2ccc(C(=O)NCc3ccco3)cn2)n1 (configuration not stated) | 7.53 µM | IC50 (HEPG2TOX_HILL_SLOPE 15.2, HEPG2TOX_R_SQUARED 0.624, PBLUC_HILL_SLOPE 17, PBLUC_R_SQUARED 0.625, read-out: LUCIFERASE INFECTION ASSAY - IC50): 6.62 µM
Nc1c(C(=O)c2ccc3c(c2)NC(=O)CO3)sc2c1c(=O)[nH]c(=O)n2Cc1ccccc1 | > 10 µM | IC50 (HEPG2TOX_HILL_SLOPE 15, HEPG2TOX_R_SQUARED 0.948, PBLUC_HILL_SLOPE 0.935, PBLUC_R_SQUARED 0.804, read-out: LUCIFERASE INFECTION ASSAY - IC50): 1.58 µM
O=C(NCCCn1cnc2ccccc21)c1[nH]nc2ccccc12 | > 10 µM | IC50 (HEPG2TOX_HILL_SLOPE 14.9, HEPG2TOX_R_SQUARED 0.872, PBLUC_HILL_SLOPE 4.15, PBLUC_R_SQUARED 0.429, read-out: LUCIFERASE INFECTION ASSAY - IC50): 6.32 µM

Source: ChEMBL document CHEMBL4483862, “Open-source discovery of chemical leads for next-generation chemoprotective antimalarials” (2018)
